Read-outs that look alike come from different tables or passages of the source.
Tests used:
Tyromyces palustris = assay: Standard rot trial (Japan Wood Preservers Association Standard Test procedure) on glueline-treated plywood; format: cell-based; details: phenol formaldehyde glue
[1] = Stability under the conditions of the glue-line treatment; format: physicochemical
[2] = cited from earlier work
decay causing fungi = assay: Efficacy in the glue-line under alkaline conditions (PF type glues); details: alkaline conditions such as PF type glues
[3] = use rate 100 gram a.i./m^3 in the glueline of plywood from pinus spp
[4] = use rate 200 gram a.i./m^3 in the glueline of plywood from pinus spp
[5] = use rate 400 gram a.i./m^3 in the glueline of plywood from pinus spp
[6] = use rate 800 gram a.i./m^3 in the glueline of plywood from pinus spp

SMILES: CC(C)(C)C(=O)C(Oc1ccc(Cl)cc1)n1cncn1 (racemic) [triadimefon, (±)1-(4-chlorophenoxy)-3,3-dimethyl-1-(1H-1,2,4-triazol-1-yl)butan-2-one]
- Efficacy against target organism (expressed as weight loss percent in a standard rot trial) (Tyromyces palustris; [3]): 3.7%
- Efficacy against target organism (expressed as weight loss percent in a standard rot trial) (Tyromyces palustris; [4]): 0.5%
- Efficacy against target organism (expressed as weight loss percent in a standard rot trial) (Tyromyces palustris; [5]): 0.9%
- Efficacy against target organism (expressed as weight loss percent in a standard rot trial) (Tyromyces palustris; [6]): 1.4%
- Stability under the conditions of the glue-line treatment ([1]; glue-line treatment): stable
- Use rate range (agricultural uses) [2]: 125–500 g/ha

SMILES: CC(C)(C)C(O)C(Oc1ccc(Cl)cc1)n1cncn1 (racemic) [triadimenol, (±) 1-(4-chlorophenoxy)-3,3-dimethyl-1-(1H-1,2,4-triazol-1-yl)butan-2-ol]
- Stability under the conditions of the glue-line treatment [1]: stable
- Efficacy relative to triadimefon (decay causing fungi): same efficacy as triadimefon
- Use rate range (agricultural uses) [2]: 125–500 g/ha

SMILES: CCCC1COC(Cn2cncn2)(c2ccc(Cl)cc2Cl)O1 (stereo not shown) [propiconazole]
- Efficacy against target organism (expressed as weight loss percent in a standard rot trial) (Tyromyces palustris; [3]): 20.5%
- Efficacy against target organism (expressed as weight loss percent in a standard rot trial) (Tyromyces palustris; [4]): 7.6%
- Efficacy against target organism (expressed as weight loss percent in a standard rot trial) (Tyromyces palustris; [5]): 21.4%
- Efficacy against target organism (expressed as weight loss percent in a standard rot trial) (Tyromyces palustris; [6]): 1.8%
- Use rate range (agricultural uses) [2]: 100–150 g/ha

SMILES: CC(C)(C)C(O)(CCc1ccc(Cl)cc1)Cn1cncn1 (stereo not shown) [tebuconazole]
- Efficacy against target organism (expressed as weight loss percent in a standard rot trial) (Tyromyces palustris; use rate 80 gram a.i./m^3 in the glueline of plywood from pinus spp): 9.2%
- Efficacy against target organism (expressed as weight loss percent in a standard rot trial) (Tyromyces palustris; use rate 160 gram a.i./m^3 in the glueline of plywood from pinus spp): 20.9%
- Efficacy against target organism (expressed as weight loss percent in a standard rot trial) (Tyromyces palustris; use rate 320 gram a.i./m^3 in the glueline of plywood from pinus spp): 6.3%
- Efficacy against target organism (expressed as weight loss percent in a standard rot trial) (Tyromyces palustris; use rate 640 gram a.i./m^3 in the glueline of plywood from pinus spp): 18.5%
- Use rate range (agricultural uses) [2]: 100–250 g/ha
